The structures appear in SMILES notation.

The data set in a line: dynamic golden-angle 17O-MRI of H2^17O uptake and washout in brain after intravenous bolus injection (control and glioblastoma mice). Format: in vivo. From the text: In one configuration, tumor and brain may be differentiated with the present methods, such as to assess the presence of a glioblastoma. […] For example, the method may allow for differentiation between subjects with a moderate tumor volume (<30%, GBM-M) and those with a large tumor volume (>30%, GBM-L). Once image reconstruction has been completed, ^17O images may be coregistered with the T2-weighted ^1H images. Tumor areas may show higher signal intensity in T2-weighted ^1H images due to having a longer T2 than normal brain tissue. Appropriate regions of interest (ROIs) that encompass the tumor and normal brain tissue may be drawn manually from T2-weighted ^1H images, or automatic segmentation routines may be used to define the ROIs. Total tumor and brain volumes may be calculated by adding the tumor and brain areas in all of the image slices. The percentage of tumor volume may then be calculated as the tumor volume divided by total brain volume.
^17O signal may be normalized by the corresponding natural abundance ^17O signal acquired before H2^17O injection or administration. Peak H2^17O uptake may be identified as the maximal signal intensity following H2^17O administration. A normalized time course of the ^17O signal from peak uptake to the end of the measurement may be fit to a monoexponential function in a pixel-wise fashion to generate the maps of peak and steady-state H2^17O uptake, as well as its washout rate. Mean values for each ROI may be calculated for each map. In tissue with no obvious washout phase or even continued accumulation of H2^17O after the injection, washout rate may be set to zero, while peak and steady-state H2^17O uptake may be calculated as the normalized ^17O signals immediately after H2^17O injection and at the end of measurement, respectively.

The mark [1] stands for this setting: GBM-L mice (large tumor volume >30%).

As to `[17OH2]` [H2^17O, ^17O-labeled water], under setting [1], the “H2^17O uptake in normal brain tissue” value is recorded as “significantly reduced H2^17O uptake”; the “H2^17O washout in normal brain tissue” value is “prolonged washout”; the “H2^17O washout in tumors” value was “no obvious washout phase, or even continuous accumulation of H2^17O after injection”. Also, the “H2^17O uptake in tumors” value (GBM-M mice (moderate tumor volume <30%)) is “reduced H2^17O uptake”. Also, the “H2^17O uptake and washout (17O signal kinetics) in brain” value (control mice, after H2^17O injection) is “rapid uptake and washout”.

The values are drawn from US20190054194A1, “System and Method For Evaluation of Subjects Using Magnetic Resonance Imaging and Oxygen-17” (Case Western Reserve University, priority 2017, published 2019).
